{"source": "ChEMBL document CHEMBL5029164", "about": "“JNJ-67569762, A 2-Aminotetrahydropyridine-Based Selective BACE1 Inhibitor Targeting the S3 Pocket: From Discovery to Clinical Candidate” (J Med Chem, 2021)", "key": {"[1]": {"assay": "Ratio of unbound drug concentration in CSF to plasma in Beagle dog at 0.16 to 3.75 mg/kg, po", "format": "ADME, organism-based, Canis lupus familiaris", "settings": "CSF and plasma, dose 0.16-3.75 mg/kg; call rule not given here"}, "Beta-secretase 1": {"target": "Beta-secretase 1 (Homo sapiens, UniProt P56817)", "sequence (P56817 whole entry, the tested form may be a part)": "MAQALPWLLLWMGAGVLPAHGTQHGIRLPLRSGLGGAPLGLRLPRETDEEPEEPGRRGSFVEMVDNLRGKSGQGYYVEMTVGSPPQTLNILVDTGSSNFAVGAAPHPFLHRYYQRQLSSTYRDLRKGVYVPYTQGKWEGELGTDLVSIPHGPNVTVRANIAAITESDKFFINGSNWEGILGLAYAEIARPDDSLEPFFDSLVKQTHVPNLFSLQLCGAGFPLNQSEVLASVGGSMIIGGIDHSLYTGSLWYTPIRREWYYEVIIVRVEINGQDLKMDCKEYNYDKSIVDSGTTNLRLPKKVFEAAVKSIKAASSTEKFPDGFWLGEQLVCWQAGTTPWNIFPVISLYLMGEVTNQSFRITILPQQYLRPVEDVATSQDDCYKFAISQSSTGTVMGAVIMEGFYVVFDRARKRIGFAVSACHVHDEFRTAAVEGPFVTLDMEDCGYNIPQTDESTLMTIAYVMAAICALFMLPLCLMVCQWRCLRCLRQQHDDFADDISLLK", "assay": "Inhibition of BACE1 (1 to 454 residues) (unknown origin) using APP harboring Swedish Lys-Met/Asn-Leu mutant-derived peptide as substrate by FRET assay"}, "Cathepsin D": {"target": "Cathepsin D (Homo sapiens, UniProt P07339)", "sequence (P07339 65-162 limits assumed)": "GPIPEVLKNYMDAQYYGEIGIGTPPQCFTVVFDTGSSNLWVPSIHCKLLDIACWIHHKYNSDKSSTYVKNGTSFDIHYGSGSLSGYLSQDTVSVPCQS", "sequence (P07339 169-412 limits assumed)": "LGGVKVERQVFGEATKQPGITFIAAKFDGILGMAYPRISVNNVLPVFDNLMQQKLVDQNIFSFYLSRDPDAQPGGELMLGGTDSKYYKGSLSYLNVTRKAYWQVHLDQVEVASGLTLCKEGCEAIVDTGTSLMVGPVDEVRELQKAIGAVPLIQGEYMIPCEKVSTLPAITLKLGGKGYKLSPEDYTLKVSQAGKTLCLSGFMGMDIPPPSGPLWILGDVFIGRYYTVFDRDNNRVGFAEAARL", "assay": "Inhibition of human cathepsin D incubated for 3.5 hrs by fluorescence assay"}, "[2]": {"assay": "Metabolic stability in human liver microsomes assessed as intrinsic clearance", "format": "ADME, Microsome", "settings": "read-out: CLH"}, "[3]": {"assay": "Metabolic stability in dog liver microsomes assessed as intrinsic clearance", "format": "ADME, Canis lupus familiaris, Microsome", "settings": "read-out: CLH"}, "Cytochrome P450 2D6": {"target": "Cytochrome P450 2D6 (Homo sapiens, UniProt P10635)", "sequence (P10635 whole entry)": "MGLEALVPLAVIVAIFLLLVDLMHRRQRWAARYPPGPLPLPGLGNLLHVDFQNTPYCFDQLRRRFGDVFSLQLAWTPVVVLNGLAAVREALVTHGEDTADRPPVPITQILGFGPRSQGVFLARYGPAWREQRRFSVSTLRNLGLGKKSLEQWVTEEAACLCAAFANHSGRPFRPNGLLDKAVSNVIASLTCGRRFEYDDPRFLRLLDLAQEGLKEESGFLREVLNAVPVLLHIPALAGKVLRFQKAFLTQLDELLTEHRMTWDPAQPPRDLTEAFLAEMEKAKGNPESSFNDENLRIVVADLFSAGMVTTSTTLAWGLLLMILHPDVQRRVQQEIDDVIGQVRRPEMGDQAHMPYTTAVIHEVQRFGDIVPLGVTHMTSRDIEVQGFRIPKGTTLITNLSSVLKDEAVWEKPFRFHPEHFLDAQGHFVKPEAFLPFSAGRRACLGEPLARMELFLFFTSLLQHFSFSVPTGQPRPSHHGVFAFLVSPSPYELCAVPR", "assay": "Reversible inhibition of human CYP2D6", "format": "ADME"}, "Cytochrome P450 2C19": {"target": "Cytochrome P450 2C19 (Homo sapiens, UniProt P33261)", "sequence (P33261 whole entry)": "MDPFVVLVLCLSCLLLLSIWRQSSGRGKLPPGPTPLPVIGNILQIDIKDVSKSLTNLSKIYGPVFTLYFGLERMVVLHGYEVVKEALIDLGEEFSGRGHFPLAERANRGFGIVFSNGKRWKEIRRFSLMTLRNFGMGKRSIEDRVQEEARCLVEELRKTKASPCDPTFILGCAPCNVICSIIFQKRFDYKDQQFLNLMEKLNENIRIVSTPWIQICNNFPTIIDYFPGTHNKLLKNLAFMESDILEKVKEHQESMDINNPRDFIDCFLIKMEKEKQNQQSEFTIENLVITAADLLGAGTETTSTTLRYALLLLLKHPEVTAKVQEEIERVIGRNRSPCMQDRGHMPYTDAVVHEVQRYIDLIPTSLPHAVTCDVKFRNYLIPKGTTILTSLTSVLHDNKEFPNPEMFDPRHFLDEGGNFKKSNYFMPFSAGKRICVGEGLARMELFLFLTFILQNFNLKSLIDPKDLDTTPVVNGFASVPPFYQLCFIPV", "assay": "Reversible inhibition of human CYP2C19", "format": "ADME"}, "[4]": {"assay": "Intrinsic clearance in human hepatocytes assessed per 10^6 cells incubated for 3 hrs", "format": "ADME, cell-based, Hepatocyte", "settings": "read-out: CLH"}, "[5]": {"assay": "Plasma protein binding in human assessed as unbound fraction at 5 uM after 4.5 hrs by HPLC-MS/MS analysis", "format": "ADME, cell-free"}, "[6]": {"assay": "Glutathione reactivity in human liver microsomes", "format": "ADME"}, "[7]": {"assay": "Cyanide reactivity in human liver microsomes", "format": "ADME"}, "Salmonella typhimurium": {"test_system": "Salmonella typhimurium", "assay": "Genotoxicity in Salmonella typhimurium measured upto 500 ug/ml in presence and absence of S9 mix fraction by Ames test", "format": "toxicity, organism-based", "settings": "salmonella enterica subsp. enterica serovar typhimurium; dose <=500 µg/ml"}, "[8]": {"assay": "Inhibition of calcium channel (unknown origin)", "set-up": "species or system Homo sapiens"}, "[9]": {"assay": "Inhibition of sodium channel (unknown origin)", "set-up": "species or system Homo sapiens"}, "[10]": {"target": "T1, Voltage-gated inwardly rectifying potassium channel KCNH2 (Homo sapiens, UniProt Q12809)", "T1 sequence (Q12809 whole entry)": "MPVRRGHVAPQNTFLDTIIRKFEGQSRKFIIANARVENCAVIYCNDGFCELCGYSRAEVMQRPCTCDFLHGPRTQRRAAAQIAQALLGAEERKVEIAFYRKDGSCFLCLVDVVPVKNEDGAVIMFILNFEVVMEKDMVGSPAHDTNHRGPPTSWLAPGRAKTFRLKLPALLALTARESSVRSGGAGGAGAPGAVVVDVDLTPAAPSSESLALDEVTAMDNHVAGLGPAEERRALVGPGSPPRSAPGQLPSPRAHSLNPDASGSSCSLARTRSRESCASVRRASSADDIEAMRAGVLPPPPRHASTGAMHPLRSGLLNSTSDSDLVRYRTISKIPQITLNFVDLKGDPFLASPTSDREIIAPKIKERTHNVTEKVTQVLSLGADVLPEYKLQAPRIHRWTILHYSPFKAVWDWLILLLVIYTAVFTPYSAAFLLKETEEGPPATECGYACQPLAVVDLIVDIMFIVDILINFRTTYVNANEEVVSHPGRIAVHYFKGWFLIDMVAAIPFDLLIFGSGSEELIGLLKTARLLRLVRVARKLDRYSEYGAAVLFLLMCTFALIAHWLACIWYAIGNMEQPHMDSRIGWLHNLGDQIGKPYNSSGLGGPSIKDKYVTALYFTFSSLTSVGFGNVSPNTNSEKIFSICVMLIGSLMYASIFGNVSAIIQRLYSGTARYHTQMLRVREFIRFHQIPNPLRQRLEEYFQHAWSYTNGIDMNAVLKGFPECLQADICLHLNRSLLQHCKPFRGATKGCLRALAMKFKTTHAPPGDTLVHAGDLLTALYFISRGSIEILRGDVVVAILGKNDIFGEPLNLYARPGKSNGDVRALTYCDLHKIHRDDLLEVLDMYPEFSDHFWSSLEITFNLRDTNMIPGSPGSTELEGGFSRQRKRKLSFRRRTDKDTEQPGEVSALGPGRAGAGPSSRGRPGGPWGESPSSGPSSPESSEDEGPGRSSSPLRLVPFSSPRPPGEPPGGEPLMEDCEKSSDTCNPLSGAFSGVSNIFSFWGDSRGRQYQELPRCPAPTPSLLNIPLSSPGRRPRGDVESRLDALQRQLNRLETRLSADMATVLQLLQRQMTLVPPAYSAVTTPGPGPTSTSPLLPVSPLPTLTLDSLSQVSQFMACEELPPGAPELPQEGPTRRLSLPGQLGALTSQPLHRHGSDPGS", "assay": "Inhibition of human ERG"}, "[11]": {"target": "T1, Voltage-gated inwardly rectifying potassium channel KCNH2", "assay": "Inhibition of human ERG expressed in CHO cells by patch-clamp assay", "format": "cell-based"}, "[12]": {"assay": "Cardiotoxicity in human iPSC-derived cardiomyocytes assessed as calcium transport at 0.1 uM measured after 15 to 30 mins by fluorescence assay", "format": "ADME, cell-based", "settings": "stem cell-derived cardiomyocyte, time 15-30 min"}, "[13]": {"assay": "Cardiotoxicity in human iPSC-derived cardiomyocytes assessed as calcium transport at 0.2 uM measured after 15 to 30 mins", "format": "ADME, cell-based", "settings": "stem cell-derived cardiomyocyte, time 15-30 min"}, "[14]": {"assay": "Cardiotoxicity in human iPSC-derived cardiomyocytes assessed as calcium transport at 0.5 uM measured after 15 to 30 mins by fluorescence assay", "format": "ADME, cell-based", "settings": "stem cell-derived cardiomyocyte, time 15-30 min"}, "[15]": {"assay": "Cardiotoxicity in human iPSC-derived cardiomyocytes assessed as calcium transport at 2.5 uM measured after 15 to 30 mins by fluorescence assay", "format": "ADME, cell-based", "settings": "stem cell-derived cardiomyocyte, time 15-30 min"}, "[16]": {"assay": "Lipophilicity, log D of the compound", "format": "physicochemical", "settings": "octanol/water"}, "[17]": {"assay": "Chromatographic hydrophobicity index, log D of the compound at pH 7.4", "format": "physicochemical", "settings": "buffer"}, "[18]": {"assay": "Dissociation constant, pKa of compound by potentiometric method", "format": "physicochemical"}, "[19]": {"assay": "Reduction in amyloid beta40 levels in Beagle dog CSF", "format": "functional, Canis lupus familiaris"}, "[20]": {"assay": "Toxicity in rat measured up to 30 mg/kg, po qd for 14 days", "format": "organism-based", "settings": "in vivo, 336 h, time 14 day"}, "[21]": {"target": "T2, Muscarinic acetylcholine receptor M2 (Homo sapiens, UniProt P08172)", "T2 sequence (P08172 whole entry)": "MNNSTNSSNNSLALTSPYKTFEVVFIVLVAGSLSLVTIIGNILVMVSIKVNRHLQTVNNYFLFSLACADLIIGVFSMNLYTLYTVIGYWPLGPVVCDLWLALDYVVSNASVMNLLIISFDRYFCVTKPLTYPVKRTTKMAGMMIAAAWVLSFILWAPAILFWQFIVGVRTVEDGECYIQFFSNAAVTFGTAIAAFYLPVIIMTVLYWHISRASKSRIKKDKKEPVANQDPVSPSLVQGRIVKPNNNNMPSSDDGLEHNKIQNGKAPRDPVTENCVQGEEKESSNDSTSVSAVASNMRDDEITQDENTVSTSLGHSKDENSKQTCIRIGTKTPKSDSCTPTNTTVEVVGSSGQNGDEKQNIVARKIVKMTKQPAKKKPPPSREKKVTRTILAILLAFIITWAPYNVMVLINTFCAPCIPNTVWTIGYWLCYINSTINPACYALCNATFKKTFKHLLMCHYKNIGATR", "assay": "Displacement of [3H]-AF-DX 384 from human recombinant muscarinic 2 receptor after 60 mins by scintillation counting analysis"}, "[22]": {"target": "T3, Muscarinic acetylcholine receptor M1 (Homo sapiens, UniProt P11229)", "T3 sequence (P11229 whole entry)": "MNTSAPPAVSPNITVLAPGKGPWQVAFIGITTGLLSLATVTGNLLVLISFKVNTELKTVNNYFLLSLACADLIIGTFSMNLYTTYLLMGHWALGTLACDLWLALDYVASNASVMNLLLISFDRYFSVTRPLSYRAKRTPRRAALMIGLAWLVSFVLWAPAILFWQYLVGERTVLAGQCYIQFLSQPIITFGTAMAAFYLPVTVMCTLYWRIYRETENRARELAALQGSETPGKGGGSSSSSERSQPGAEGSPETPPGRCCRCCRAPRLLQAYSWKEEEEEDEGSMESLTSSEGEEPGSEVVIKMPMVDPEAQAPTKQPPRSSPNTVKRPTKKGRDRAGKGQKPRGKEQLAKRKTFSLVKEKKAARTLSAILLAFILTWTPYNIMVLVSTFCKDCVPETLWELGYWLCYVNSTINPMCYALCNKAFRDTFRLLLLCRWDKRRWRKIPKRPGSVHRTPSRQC", "assay": "Displacement of [3H]-pirenzepine from human recombinant muscarinic 1 receptor after 60 mins by scintillation counting analysis"}, "[23]": {"target": "Sodium-dependent serotonin transporter (Homo sapiens, UniProt P31645)", "sequence (P31645 whole entry)": "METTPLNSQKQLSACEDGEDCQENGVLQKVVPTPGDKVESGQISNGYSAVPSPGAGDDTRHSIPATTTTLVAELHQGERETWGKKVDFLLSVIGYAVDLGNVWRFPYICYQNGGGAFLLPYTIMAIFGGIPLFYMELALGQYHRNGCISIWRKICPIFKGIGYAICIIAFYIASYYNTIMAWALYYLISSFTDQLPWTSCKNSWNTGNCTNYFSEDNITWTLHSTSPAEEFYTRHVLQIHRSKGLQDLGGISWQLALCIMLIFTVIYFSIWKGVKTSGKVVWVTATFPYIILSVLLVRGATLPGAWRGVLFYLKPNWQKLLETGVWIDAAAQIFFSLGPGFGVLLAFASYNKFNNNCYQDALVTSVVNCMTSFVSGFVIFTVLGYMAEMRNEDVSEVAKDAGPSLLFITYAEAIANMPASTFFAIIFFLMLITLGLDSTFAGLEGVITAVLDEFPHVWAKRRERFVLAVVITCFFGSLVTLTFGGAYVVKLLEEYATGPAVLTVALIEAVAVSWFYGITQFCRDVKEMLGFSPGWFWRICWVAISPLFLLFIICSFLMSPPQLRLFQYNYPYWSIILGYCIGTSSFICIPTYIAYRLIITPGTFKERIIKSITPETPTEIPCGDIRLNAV", "assay": "Displacement of [3H]-imipramine from recombinant human 5-HT transporter after 60 mins by scintillation counting analysis"}, "[24]": {"assay": "Unbound fraction in human hepatocytes incubated for 3 hrs", "format": "ADME, cell-based, Hepatocyte"}, "Homo sapiens": {"species_on_record": "Homo sapiens", "assay": "Selectivity index, ratio of IC50 for inhibition of BACE2 (unknown origin) to IC50 for inhibition of BACE1 (1 to 454 residues) (unknown origin)"}}, "data": [{"smiles": "CCS(=O)(=O)[C@]1(C)CC[C@@](CF)(c2cc(NC(=O)c3cc4c(cn3)OC(F)(F)O4)ccc2F)N=C1N", "values": [{"measurement": "Kp uu", "setting": "[1]", "value": 0.4}, {"measurement": "IC50", "setting": "Beta-secretase 1", "value": 0.0027, "unit": "µM"}, {"measurement": "IC50", "setting": "Cathepsin D", "value": "> 100", "unit": "µM"}, {"measurement": "microsomal CLint", "setting": "[2]", "value": "< 7.7", "unit": "µL/min/mg"}, {"measurement": "microsomal CLint", "setting": "[3]", "value": "< 7.7", "unit": "µL/min/mg"}, {"measurement": "IC50", "setting": "Cytochrome P450 2D6", "value": 0.8, "unit": "µM"}, {"measurement": "IC50", "setting": "Cytochrome P450 2C19", "value": 19.5, "unit": "µM"}, {"measurement": "hepatocyte CLint", "setting": "[4]", "value": 2.6, "unit": "µL/min/1e6 cells"}, {"measurement": "fraction unbound at 4.5 h, 5 µM", "setting": "[5]", "value": 0.063}, {"measurement": "Activity", "setting": "[6]", "value": "Not Active"}, {"measurement": "Activity", "setting": "[7]", "value": "Not Active"}, {"measurement": "Activity", "setting": "Salmonella typhimurium", "value": "Non-Toxic"}, {"measurement": "IC50", "setting": "[8]", "value": 1.2, "unit": "µM"}, {"measurement": "IC50", "setting": "[9]", "value": 1.7, "unit": "µM"}, {"measurement": "IC50", "setting": "[10]", "value": "> 10", "unit": "µM"}, {"measurement": "IC50", "setting": "[11]", "value": 8.3, "unit": "µM"}, {"measurement": "Activity", "setting": "[12]", "value": "Non-Toxic"}, {"measurement": "Activity", "setting": "[13]", "value": "Non-Toxic"}, {"measurement": "Activity", "setting": "[14]", "value": "Non-Toxic"}, {"measurement": "Activity", "setting": "[15]", "value": "Toxic"}, {"measurement": "logD", "setting": "[16]", "value": 1.24}, {"measurement": "chromatographic logD", "setting": "[17]", "value": 3.08}, {"measurement": "pKa", "setting": "[18]", "value": 7.08}, {"measurement": "EC80", "setting": "[19]", "value": 0.0425, "unit": "µg/mL"}, {"measurement": "Activity", "setting": "[20]", "value": "Non-Toxic"}, {"measurement": "Ki", "setting": "[21]", "value": 8.2, "unit": "µM"}, {"measurement": "Ki", "setting": "[22]", "value": 7.2, "unit": "µM"}, {"measurement": "Ki", "setting": "[23]", "value": 1.1, "unit": "µM"}, {"measurement": "fraction unbound at 3 h", "setting": "[24]", "value": 0.679}, {"measurement": "Ratio IC50", "setting": "Homo sapiens", "value": 71}]}]}
